Source: patent publication US20250049948A1, “NOVEL IONIZABLE LIPIDS AND LIPID NANOPARTICLES AND METHODS OF USING THE SAME” (Sail Biomedicines, Inc., priority 2021, published 2025)

Experiments:
Balb/c mice [1] = assay: EPO levels in plasma, EPO MSD kit (Example 6); assay type: in vivo; conditions: mRNA dose 5 μg FLUC + 5 μg EPO, intravenous
Balb/c mice [2] = assay: In-vivo bioluminescent imaging of LNP compositions (Example 6); conditions: for Bioluminescence (IV) Liver / Bioluminescence (IV) Lung / Bioluminescence (IV) Spleen / Bioluminescence (IV) Whole Body: 4-6 hours post-dose; for Spleen: Liver Ratio: intravenous
[3] = LNP size and polydispersity, Zetasizer Ultra; assay type: physicochemical
Method: (§1) For each LNP composition, the lipid mix and mRNA solution were mixed at a 1:3 ratio by volume, respectively, on a NanoAssemblr Ignite (Precision Nanosystems) at a total flow rate of 9 mL/min. The resulting compositions were then loaded into Slide-A-Lyzer G2 dialysis cassettes (10 k MWCO) and dialyzed in 200 times sample volume of 1×PBS for 2 hours at room temperature with gentle stirring. The PBS was refreshed, and the compositions were further dialyzed for at least 14 hours at 4° C. with gentle stirring. The dialyzed compositions were then collected and concentrated by centrifugation at 3000×g using Amicon Ultra centrifugation filters (100 k MWCO). The concentrated particles were characterized for size, polydispersity, and particle concentration using Zetasizer Ultra (Malvern Panalytical) and for mRNA encapsulation efficiency using Quant-iT RiboGreen RNA Assay Kit (ThermoFisher Scientific).

[4] = mRNA encapsulation efficiency, Quant-iT RiboGreen RNA Assay; assay type: physicochemical
Method: as §1

[5] = mRNA dose 5 μg FLUC (CRE/FLUC 1:1 LNP)

| SMILES | hEPO (Balb/c mice [1]) | Bioluminescence (IV) Liver (Balb/c mice [2]; mRNA dose 5 μg FLUC + 5 μg EPO) | Bioluminescence (IV) Lung (Balb/c mice [2]; mRNA dose 5 μg FLUC + 5 μg EPO) | Bioluminescence (IV) Spleen (Balb/c mice [2]; mRNA dose 5 μg FLUC + 5 μg EPO) | Bioluminescence (IV) Whole Body (Balb/c mice [2]; mRNA dose 5 μg FLUC + 5 μg EPO) | Spleen: Liver Ratio (Balb/c mice [2]; mRNA dose 5 μg FLUC + 5 μg EPO) | PDI ([3]; LNP with FLUC/EPO 1:1 mRNA) | Size (nm) ([3]; LNP with FLUC/EPO 1:1 mRNA) | % EE ([4]; LNP with FLUC/EPO 1:1 mRNA) | Bioluminescence (IV) Liver (Balb/c mice [2]; [5]) | Bioluminescence (IV) Lung (Balb/c mice [2]; [5]) | Bioluminescence (IV) Spleen (Balb/c mice [2]; [5]) | Bioluminescence (IV) Whole Body (Balb/c mice [2]; [5]) | Spleen: Liver Ratio (Balb/c mice [2]; [5]) | PDI ([3]; LNP with CRE/FLUC 1:1 mRNA) | Size (nm) ([3]; LNP with CRE/FLUC 1:1 mRNA) | PDI ([3]; LNP with EGFP mRNA) | Size (nm) ([3]; LNP with EGFP mRNA) | % EE ([4]; LNP with CRE/FLUC 1:1 mRNA) | % EE ([4]; LNP with EGFP mRNA) |
| --- | --- | --- | --- | --- | --- | --- | --- | --- | --- | --- | --- | --- | --- | --- | --- | --- | --- | --- | --- | --- |
| CCCCCCC(CCCCCC)CCCOC(=O)CCCCCCCN(CCCCCCCC(=O)OCCCC(CCCCCC)CCCCCC)CCCCN(C)C [Compound 2130, bis(4-hexyldecyl) 8,8′-((4-(dimethylamino)butyl)azanediyl) dioctanoate] | 1.5E + 02 | 7.0E + 04 | 1.4E + 05 | 3.0E + 03 | 1.2E + 04 | 0.045 | 0.13 | 68.7 nm | 98.5% |  |  |  |  |  |  |  |  |  |  |  |
| CCCCCCC(CCCCCC)CCCOC(=O)CCCCCN(CCCCCC(=O)OCCCC(CCCCCC)CCCCCC)C(=O)CCCN(C)C [Compound 2134, bis(4-hexyldecyl) 6,6′-((4-(dimethylamino)butanoyl)azanediyl) dihexanoate] |  |  |  |  |  |  |  |  |  | 7.5E + 04 | 1.4E + 03 | 4.3E + 03 | 5.4E + 03 | 0.063 | 0.11 | 92.9 nm | 0.20 | 107.1 nm | 98.3% | 98.3% |
| CCCCCC(CCCCC)CCCOC(=O)CCCCCCCN(CCCCCCCC(=O)OCCCC(CCCCC)CCCCC)CCC(O)CN(C)C (stereo not drawn) [Compound 2138, bis(4-pentylnonyl) 8,8′-((4-(dimethylamino)-3-hydroxybutyl)azanediyl) dioctanoate] |  |  |  |  |  |  |  |  |  | 1.7E + 05 | 1.2E + 03 | 2.8E + 04 | 3.7E + 03 | 0.236 | 0.35 | 112.7 nm |  |  | 97% |  |
| CCCCCCC(CCCCCC)CCCOC(=O)CCCCCCCN(CCCCCCCC(=O)OCCCC(CCCCCC)CCCCCC)CCC(O)CN(C)C (stereo not drawn) [Compound 2139, bis(4-hexyldecyl) 8.8′-((4-(dimethylamino)-3-hydroxybutyl)azanediyl) dioctanoate] | 2.0E + 02 | 1.7E + 05 | 2.2E + 05 | 1.0E + 05 | 4.1E + 04 | 0.583 | 0.18 | 88.6 nm | 98.3% |  |  |  |  |  |  |  |  |  |  |  |
| CCCCCCC(CCCCCC)CCCOC(=O)CCCCCN(CCCCCC(=O)OCCCC(CCCCCC)CCCCCC)CCC(O)CN(C)C (stereo not drawn) [Compound 2140, bis(4-hexyldecyl) 6.6′-((4-(dimethylamino)-3-hydroxybutyl)azanediyl)dihexanoate] |  |  |  |  |  |  |  |  |  | 1.6E + 03 | 5.3E + 03 | 1.2E + 05 | 4.3E + 04 | 76.18 | 0.16 | 86.9 nm |  |  | 96.9% |  |
| CCCCCCC(CCCCCC)CCCOC(=O)CCCCCCCN(CCCCCCCC(=O)OCCCC(CCCCCC)CCCCCC)C(=O)CCN1CCCC1 [Compound 2142, bis(4-hexyldecyl) 8,8′-((3-(pyrrolidin-1-yl)propanoyl)azanediyl) dioctanoate] | 7.3E + 03 | 2.4E + 05 | 2.0E + 05 | 5.6E + 05 | 7.8E + 05 | 2.758 | 0.06 | 69.2 nm | 96.7% |  |  |  |  |  |  |  |  |  |  |  |
| CCCCCCC(CCCCCC)CCCOC(=O)CCCCCN(CCCCCC(=O)OCCCC(CCCCCC)CCCCCC)C(=O)CCN1CCCC1 [Compound 2143, bis(4-hexyldecyl) 6,6′-((3-(pyrrolidin-1-yl)propanoyl)azanediyl)dihexanoate] |  |  |  |  |  |  |  |  |  | 1.3E + 05 | 6.3E + 03 | 6.5E + 05 | 1.7E + 05 | 5.050 | 0.11 | 78.6 nm | 0.08 | 83.4 nm | 97.1% | 97.3% |
| CCCCCC(CCCCC)CCCOC(=O)CCCCCCCN(CCCCCCCC(=O)OCCCC(CCCCC)CCCCC)CCOCCOCCN(C)C [Compound 2144, 4-pentylnonyl 2-methyl-11-(8-oxo-8-((4-pentylnonyl)oxy)octyl)-5,8-dioxa-2,11-diazanonadecan-19-oate] |  |  |  |  |  |  |  |  |  | 7.4E + 04 | 1.2E + 03 | 3.0E + 04 | 7.1E + 03 | 0.401 | 0.26 | 78.0 nm | 0.29 | 73.5 nm | 96.8% | 98.3% |
| CCCCCCC(CCCCCC)CCCOC(=O)CCCCCCCN(CCCCCCCC(=O)OCCCC(CCCCCC)CCCCCC)CCOCCOCCN(C)C [Compound 2145, 4-hexyldecyl 11-(8-((4-hexyldecyl)oxy)-8-oxooctyl)-2-methyl-5,8-dioxa-2,11-diazanonadecan-19-oate] | 8.4E + 02 | 1.1E + 05 | 7.2E + 04 | 1.2E + 03 | 4.0E + 03 | 0.012 | 0.21 | 95.4 nm | 97.6% |  |  |  |  |  |  |  |  |  |  |  |
| CCCCCCC(CCCCCC)CCCOC(=O)CCCCCN(CCCCCC(=O)OCCCC(CCCCCC)CCCCCC)CCOCCOCCN(C)C [Compound 2146, 4-hexyldecyl 11-(6-((4-hexyldecyl)oxy)-6-oxohexyl)-2-methyl-5,8-dioxa-2,11-diazaheptadecan-17-oate] |  |  |  |  |  |  |  |  |  | 9.7E + 04 | 1.2E + 03 | 4.7E + 04 | 7.4E + 03 | 0.505 | 0.26 | 81.0 nm |  |  | 96.5% |  |
| CCCCCC(CCCCC)CCCNC(=O)CCCCCCCN(CCCCCCCC(=O)NCCCC(CCCCC)CCCCC)C(=O)CCN1CCCC1 [Compound 2241, 8-(N-(8-oxo-8-((4-pentylnonyl)amino)octyl)-3-(pyrrolidin-1-yl)propanamido)-N-(4-pentylnonyl) octanamide] | 1.6E + 03 | 3.5E + 03 | 5.4E + 04 | 7.6E + 04 | 3.1E + 04 | 22.241 | 0.15 | 100.89 nm | 94.7% |  |  |  |  |  |  |  |  |  |  |  |
